Laboratory results: patent US20110135763A1, “Antiseptic formulation especially for prevention of complications associated with skin burns” (priority 2009, published 2011)

Assays:
small capillaries = test: inventor's experiments on the effect of DMSO on blood vessels; details: DMSO in a concentration ranging between 50% and 100%; best results at substantially 100%
Excerpt: The higher the DMSO concentration was taken, the better result was achieved. Such phenomenon may effectively contribute to stopping leakage of capillaries and formation of blister, whereas the leakage and blister are the major factors leading to infections and delayed wound healing, and therefore to scar formation. […] The best results have been observed for usage of DMSO in the concentration of substantially 100%.
(d) DMSO (dimethyl sulfoxide) is known as an industrial solvent that has the ability to penetrate plant and animal tissues and to preserve living cells during freezing. It has bacteriostatic, anti-inflammatory, analgesic, radioprotective, fibrinolytic and vasodilative properties, and inhibits cholinesterase and granulation tissue. DMSO also has been used as an agent to increase the penetrability of other substances. […] This capability of DMSO has increased with an increase of the DMSO concentration, and the best results have been observed for usage of DMSO (USP grade) in the concentration essentially of 100%.

Human Leukocyte Elastase = molecular target: T1, Human Leukocyte Elastase (Homo sapiens, UniProt P08246); details: Q. Ying et al., 1991; cited from earlier work
T1 sequence (P08246 30-267): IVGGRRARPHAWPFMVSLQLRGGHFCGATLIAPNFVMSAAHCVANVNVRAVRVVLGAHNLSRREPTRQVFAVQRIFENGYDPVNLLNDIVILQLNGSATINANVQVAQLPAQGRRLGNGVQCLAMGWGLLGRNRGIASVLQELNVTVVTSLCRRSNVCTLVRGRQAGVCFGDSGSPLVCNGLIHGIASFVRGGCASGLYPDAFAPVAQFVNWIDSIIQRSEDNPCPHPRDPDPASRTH

SMILES	effect on small capillaries (small capillaries)	elastase inhibition (Human Leukocyte Elastase)
C[S+](C)[O-] [DMSO, dimethyl sulfoxide]	constricts small capillaries	
C[C@H]1[C@H](C)CC[C@]2(C(=O)O)CC[C@]3(C)C(=CC[C@@H]4[C@@]5(C)CC[C@H](O)C(C)(C)[C@@H]5CC[C@]43C)[C@H]12 [Ursolic acid]		potent elastase inhibitor
